Values after ≈ are worked out from the molar mass of the structure shown. Where two headings read alike, the source gives them in different places.
Columns and labels:
[1] = tested on: M. tuberculosis inhA overexpression strain mc^24914; experiment: microbe, parasite or virus in culture; type: cell-based, Mycobacterium tuberculosis; settings: for MIC: Mycobacterium tuberculosis
[2] = tested on: M. tuberculosis strain H37Rv; settings: cited from earlier work
[3] = tested on: M. tuberculosis strain H37Rv; type: cell-based, Mycobacterium tuberculosis; settings: H37Rv background
[4] = read-out: MIC (µM) mc^24914, Table 1, commercial material, […]
[5] = read-out: MIC (µM) mc^24914, Table 2, synthetic material

Structure (SMILES)	MIC [1, 4]	MIC [1, 5]	further results
Oc1cc(Cl)ccc1Oc1ccc(Cl)cc1Cl [triclosan, reference compound]	120 µM (≈ 34.7 µg/mL)		
COc1cccc(Nc2ccc3nonc3c2N)c1 [JSF-3617, N5-(3-methoxyphenyl)benzo[c][1,2,5]oxadiazole-4,5-diamine]		125 µM (≈ 32 µg/mL)	
NNC(=O)c1ccncc1 [isoniazid, reference compound]	2.5 µM (≈ 0.343 µg/mL)	2.5 µM (≈ 0.343 µg/mL)	
COc1cccc(Nc2ccc(N)c3nonc23)c1 [JSF-3616, N4-(3-methoxyphenyl)-benzo[c][1,2,5]oxadiazole-4,7-diamine]		32 µM (≈ 8.2 µg/mL)	
O=[N+]([O-])c1cn2c(n1)OC[C@@H](OCc1ccc(OC(F)(F)F)cc1)C2 [pretomanid]			frequency of resistance [2]: 10^−5 to 10^−6
COc1cccc(Nc2ccc([N+](=O)[O-])c3nonc23)c1 [JSF-2164, N-(3-methoxyphenyl)-7-nitrobenzo[c][1,2,5]oxadiazol-4-amine]	30 µM (≈ 8.59 µg/mL)	25 µM (≈ 7.16 µg/mL)	mutation rate (spontaneous resistance) [3]: ~10^−5; MIC shift versus the inhA overexpression strain as compared to H37Rv ([1]; mc^24914 vs H37Rv): 3 fold

— paper PMC7801736 (ACS infectious diseases, 2019)
